The melting point is the temperature, or range, at which the solid turns liquid. On to `Cc1nc(N2CCc3cc(Cl)cc(Cl)c32)c2c(C)nn(Cc3ccccc3)c2n1` [Example 414], for which the melting point was 145 to 146 °C.

As to `COCC[C@@H](COC)n1nnc2c(N3CCc4cc(Br)cc(Br)c43)nc(C)cc21` [Example 1, (S)-4-(5,7-Dibromo-2,3-dihydro-1H-indol-1-yl)-1-[1-(methoxymethyl)-3-methoxypropyl]-6-methyl-1H-1,2,3-triazolo[4,5-c]pyridine], the melting point is 136 to 138 °C.
